US10034861B2 (priority 2016, dated 2018)
Where two headings read alike, the source gives them in different places.

Assays:
Format in all cases: biochemical
PDE1A = PDE1A (Homo sapiens (Human), UniProt P54750); experiment: biochemical
Description: (§1) Table 1 lists the IC50 value for inhibition of PDE1 by the compounds of the invention. […] PDE1 assays are described in the Experimental Section.

PDE1C = PDE1C (Homo sapiens (Human), UniProt Q14123); experiment: biochemical
Description: as §1

PDE1B = PDE1B (Homo sapiens (Human), UniProt Q01064); experiment: PDE1 inhibition assay (PDE1B); conditions: 15 nM tritium labelled cAMP, 1 hr at room temperature, SPA beads
Chain of PDE1B (Q01064 whole entry): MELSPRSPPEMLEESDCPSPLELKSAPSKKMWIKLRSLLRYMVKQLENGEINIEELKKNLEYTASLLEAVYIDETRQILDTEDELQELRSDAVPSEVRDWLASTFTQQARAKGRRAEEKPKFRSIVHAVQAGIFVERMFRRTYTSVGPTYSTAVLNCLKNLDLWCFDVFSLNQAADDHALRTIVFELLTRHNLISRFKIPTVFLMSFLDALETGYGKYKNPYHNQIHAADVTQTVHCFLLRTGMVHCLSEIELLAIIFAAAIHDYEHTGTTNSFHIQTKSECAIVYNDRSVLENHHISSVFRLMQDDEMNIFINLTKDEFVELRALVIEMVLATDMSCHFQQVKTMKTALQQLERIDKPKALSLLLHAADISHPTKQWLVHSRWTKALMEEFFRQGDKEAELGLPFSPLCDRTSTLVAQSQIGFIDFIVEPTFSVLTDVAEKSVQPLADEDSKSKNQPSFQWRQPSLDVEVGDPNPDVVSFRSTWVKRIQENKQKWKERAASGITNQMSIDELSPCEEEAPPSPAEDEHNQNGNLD
Description: as §1

[1] = 15 nM tritium labelled cAMP, 1 hr at room temperature, SPA beads

Chain of PDE1C (Q14123 whole entry): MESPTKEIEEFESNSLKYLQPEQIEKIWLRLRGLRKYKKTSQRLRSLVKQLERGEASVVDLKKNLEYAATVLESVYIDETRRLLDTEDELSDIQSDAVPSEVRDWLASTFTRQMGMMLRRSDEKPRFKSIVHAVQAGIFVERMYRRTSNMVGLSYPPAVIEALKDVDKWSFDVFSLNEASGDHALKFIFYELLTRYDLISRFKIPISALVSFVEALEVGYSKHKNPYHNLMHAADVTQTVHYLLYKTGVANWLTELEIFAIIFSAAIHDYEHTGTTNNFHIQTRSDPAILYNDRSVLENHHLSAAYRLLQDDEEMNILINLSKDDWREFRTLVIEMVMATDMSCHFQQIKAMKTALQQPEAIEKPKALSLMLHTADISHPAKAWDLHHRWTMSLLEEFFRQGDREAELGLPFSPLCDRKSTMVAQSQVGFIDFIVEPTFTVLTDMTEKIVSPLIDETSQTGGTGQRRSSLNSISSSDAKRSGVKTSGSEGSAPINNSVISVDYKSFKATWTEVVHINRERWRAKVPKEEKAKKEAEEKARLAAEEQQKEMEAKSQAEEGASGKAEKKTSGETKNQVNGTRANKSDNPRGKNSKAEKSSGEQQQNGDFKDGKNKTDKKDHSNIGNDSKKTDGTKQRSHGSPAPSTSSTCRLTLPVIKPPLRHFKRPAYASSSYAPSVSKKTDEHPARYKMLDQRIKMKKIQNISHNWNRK
Chain of PDE1A (P54750 whole entry): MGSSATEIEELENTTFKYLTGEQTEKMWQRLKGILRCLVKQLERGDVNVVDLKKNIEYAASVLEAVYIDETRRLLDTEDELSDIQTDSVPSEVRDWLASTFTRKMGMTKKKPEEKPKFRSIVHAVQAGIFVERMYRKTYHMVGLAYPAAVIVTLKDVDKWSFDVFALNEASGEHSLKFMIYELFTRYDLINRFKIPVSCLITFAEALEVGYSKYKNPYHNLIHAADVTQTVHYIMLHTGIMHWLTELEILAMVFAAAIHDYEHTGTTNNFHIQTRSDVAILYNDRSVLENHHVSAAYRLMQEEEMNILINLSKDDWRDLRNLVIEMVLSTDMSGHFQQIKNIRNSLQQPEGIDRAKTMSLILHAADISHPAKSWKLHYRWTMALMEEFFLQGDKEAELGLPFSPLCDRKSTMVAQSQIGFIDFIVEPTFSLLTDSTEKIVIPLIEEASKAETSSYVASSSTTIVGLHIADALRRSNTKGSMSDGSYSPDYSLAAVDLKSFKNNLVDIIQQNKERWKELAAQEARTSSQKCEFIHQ

| Compound | IC50 (PDE1A; [1]) [nM] | IC50 (PDE1C; [1]) [nM] | IC50 (PDE1B; read-out: PDE1B, IC50) [nM] | IC50 (PDE1C) [nM] | IC50 (PDE1B; PDE1B, IC50 (nM)) [nM] | IC50 (PDE1A) [nM] |
| --- | --- | --- | --- | --- | --- | --- |
| CCOc1ncccc1-c1cc(NCc2nccnc2OC)c2c(n1)c(C)nn2C(C)C [Example 91, 5-(2-ethoxy-3-pyridyl)-1-isopropyl-N-[(3-methoxypyrazin-2-yl)methyl]-3-methyl-pyrazolo[4,3-b]pyridin-7-amine] | 27 | 70 | 2.3 | – | – | – |
| CCOc1ncccc1-c1cc(NCc2noc(C)n2)c2c(n1)c(C)nn2C(C)C [Example 52, 5-(2-ethoxy-3-pyridyl)-1-isopropyl-3-methyl-N-[(5-methyl-1,2,4-oxadiazol-3-yl)methyl]pyrazolo[4,3-b]pyridin-7-amine] | 1.9 | 4.4 | 0.17 | – | – | – |
| Cc1nn(C(C)C)c2c(NCc3cnn(C)c3)cc(-c3ncco3)nc12 [Example 168, 1-isopropyl-3-methyl-N-[(1-methylpyrazol-4-yl)methyl]-5-oxazol-2-yl-pyrazolo[4,3-b]pyridin-7-amine] | 14 | 36 | 2.6 | – | – | – |
| Cc1nn(C(C)C)c2c(NCc3cnn(C)c3)cc(-c3ccccc3)nc12 [Example 64, 1-isopropyl-3-methyl-N-[(1-methylpyrazol-4-yl)methyl]-5-phenyl-pyrazolo[4,3-b]pyridin-7-amine] | 52 | 47 | 12 | – | – | – |
| CCOc1ncccc1-c1cc(NCc2cccnc2C(F)(F)F)c2c(n1)c(C)nn2C(C)C [Example 77, 5-(2-ethoxy-3-pyridyl)-1-isopropyl-3-methyl-N-[[2-(trifluoromethyl)-3-pyridyl]methyl]pyrazolo[4,3-b]pyridin-7-amine] | 21 | 64 | 0.22 | – | – | – |
| CCOc1ncccc1-c1cc(NCc2cnn(C)c2)c2c(n1)c(C)nn2C [Example 28, 5-(2-ethoxy-3-pyridyl)-1,3-dimethyl-N-[(1-methylpyrazol-4-yl)methyl]pyrazolo[4,3-b]pyridin-7-amine] | 550 | 1900 | 85 | – | – | – |
| COc1ncccc1-c1cc(NCc2cnn(C)c2)c2c(n1)c(C)nn2C(C)C [Example 62, 1-isopropyl-5-(2-methoxy-3-pyridyl)-3-methyl-N-[(1-methylpyrazol-4-yl)methyl]pyrazolo[4,3-b]pyridin-7-amine] | 16 | 21 | 2.4 | – | – | – |
| CCOc1ncccc1-c1cc(NCc2cnn(C)c2)c2c(n1)c(CF)nn2C(C)C [Example 199, 5-(2-ethoxypyridin-3-yl)-3-(fluoromethyl)-1-isopropyl-N-((1-methyl-1H-pyrazol-4-yl)methyl)-1H-pyrazolo[4,3-b]pyridin-7-amine] | 7.4 | 26 | 0.75 | – | – | – |
| CCOc1ncccc1-c1cc(NCc2cccc(C)c2)c2c(cnn2C(C)C)n1 [Example 23, 5-(2-ethoxy-3-pyridyl)-1-isopropyl-N-(m-tolylmethyl)pyrazolo[4,3-b]pyridin-7-amine] | 240 | 750 | 38 | – | – | – |
| CCCOc1ncccc1-c1cc(NCc2cc[nH]n2)c2c(n1)c(C)nn2C(C)C [Example 143, 1-isopropyl-3-methyl-5-(2-propoxy-3-pyridyl)-N-(1H-pyrazol-3-ylmethyl)pyrazolo[4,3-b]pyridin-7-amine] | 3.8 | 9.2 | 0.26 | – | – | – |
| CCCn1ncc2nc(-c3cccnc3OCC)cc(NCc3cnn(C)c3)c21 [Example 13, 5-(2-ethoxy-3-pyridyl)-N-[(1-methylpyrazol-4-yl)methyl]-1-propyl-pyrazolo[4,3-b]pyridin-7-amine] | 90 | 340 | 15 | – | – | – |
| CCOc1ncccc1-c1cc(NCc2cncc(OC)c2)c2c(n1)c(C)nn2C(C)C [Example 106, 5-(2-ethoxy-3-pyridyl)-1-isopropyl-N-[(5-methoxy-3-pyridyl)methyl]-3-methyl-pyrazolo[4,3-b]pyridin-7-amine] | 2.1 | 3.9 | 0.45 | – | – | – |
| CCN(C)c1ncccc1-c1cc(NCc2ccc(OC)cc2)c2c(n1)c(C)nn2C(C)C [Example 198, 5-(2-(ethyl(methyl)amino)pyridin-3-yl)-1-isopropyl-N-(4-methoxybenzyl)-3-methyl-1H-pyrazolo[4,3-b]pyridin-7-amine] | 1100 | 1000 | 240 | – | – | – |
| CCOc1ncccc1-c1cc(NCc2ncn(C)n2)c2c(n1)c(C)nn2C1COC1 [Example 163, 5-(2-ethoxy-3-pyridyl)-3-methyl-N-[(1-methyl-1,2,4-triazol-3-yl)methyl]-1-(oxetan-3-yl)pyrazolo[4,3-b]pyridin-7-amine] | 120 | 120 | 14 | – | – | – |
| CCOc1ncccc1-c1cc(NCc2nnc(C)o2)c2c(cnn2C(C)CC)n1 (single isomer, unassigned) [Example 138, 5-(2-ethoxy-3-pyridyl)-N-[(5-methyl-1,3,4-oxadiazol-2-yl)methyl]-1-[1-methylpropyl]pyrazolo[4,3-b]pyridin-7-amine] | 93 | – | – | 180 | 6.8 | – |
| CCOc1ncccc1-c1cc(NCc2ccc(OC)nc2)c2c(n1)c(C)nn2C(C)C [Example 111, 5-(2-ethoxy-3-pyridyl)-1-isopropyl-N-[(6-methoxy-3-pyridyl)methyl]-3-methyl-pyrazolo[4,3-b]pyridin-7-amine] | 28 | 68 | 1.4 | – | – | – |
| COc1ncccc1-c1cc(NCc2cnc(C)s2)c2c(n1)c(C)nn2C(C)C [Example 173, 1-isopropyl-5-(2-methoxy-3-pyridyl)-3-methyl-N-[(2-methylthiazol-5-yl)methyl]pyrazolo[4,3-b]pyridin-7-amine] | 49 | 26 | 6.3 | – | – | – |
| [2H]C([2H])(C)Oc1ncccc1-c1cc(NCc2cccnc2OC)c2c(n1)c(C)nn2C(C)C [Example 180, 5-(2-(ethoxy-1,1-d2)pyridin-3-yl)-1-isopropyl-N-((2-methoxypyridin-3-yl)methyl)-3-methyl-1H-pyrazolo[4,3-b]pyridin-7-amine] | – | – | – | 78 | 0.77 | 27 |
| CCOc1ncccc1-c1cc(NCc2ccc(C)nc2)c2c(n1)c(C)nn2C(C)C [Example 87, 5-(2-ethoxy-3-pyridyl)-1-isopropyl-3-methyl-N-[(6-methyl-3-pyridyl)methyl]pyrazolo[4,3-b]pyridin-7-amine] | 6.3 | 13 | 0.95 | – | – | – |
| CCOc1ncccc1-c1cc(NCc2c[nH]cn2)c2c(n1)c(C)nn2C(C)C [Example 40, 5-(2-ethoxy-3-pyridyl)-N-(1H-imidazol-4-ylmethyl)-1-isopropyl-3-methyl-pyrazolo[4,3-b]pyridin-7-amine] | 14 | 32 | 1 | – | – | – |
| CCOc1ncccc1-c1cc(NCc2ccn(C)n2)c2c(cnn2C(C)C)n1 [Example 19, 5-(2-ethoxypyridin-3-yl)-1-isopropyl-N-((1-methyl-1H-pyrazol-3-yl)methyl)-1H-pyrazolo[4,3-b]pyridin-7-amine] | 66 | 150 | 4.6 | – | – | – |
| CCOc1ncccc1-c1cc(NCc2cnn(C)n2)c2c(n1)c(C)nn2C(C)C [Example 5, 5-(2-ethoxy-3-pyridyl)-1-isopropyl-3-methyl-N-[(2-methyltriazol-4-yl)methyl]pyrazolo[4,3-b]pyridin-7-amine] | 11 | 28 | 1.8 | – | – | – |
| CCOc1ncccc1-c1cc(NCc2cncnc2OC)c2c(n1)c(C)nn2C(C)C [Example 190, 5-(2-ethoxy-3-pyridyl)-1-isopropyl-N-[(4-methoxypyrimidin-5-yl)methyl]-3-methyl-pyrazolo[4,3-b]pyridin-7-amine] | 74 | 94 | 7.9 | – | – | – |
| CCOc1ncccc1-c1cc(NCc2cc[nH]n2)c2c(cnn2C(C)CC)n1 (single isomer, unassigned) [Example 136, 5-(2-ethoxy-3-pyridyl)-1-[1-methylpropyl]-N-(1H-pyrazol-3-ylmethyl)pyrazolo[4,3-b]pyridin-7-amine] | 62 | – | – | 100 | 3.2 | – |
| CCOc1ncccc1-c1cc(NCc2coc(C)n2)c2c(n1)c(C)nn2C(C)C [Example 37, 5-(2-ethoxy-3-pyridyl)-1-isopropyl-3-methyl-N-[(2-methyloxazol-4-yl)methyl]pyrazolo[4,3-b]pyridin-7-amine] | 5.9 | 18 | 0.43 | – | – | – |
| CCOc1ncccc1-c1cc(NCc2nnc(C)o2)c2c(n1)c(C)nn2C(C)C [Example 1, 5-(2-ethoxypyridin-3-yl)-1-isopropyl-3-methyl-N-((5-methyl-1,3,4-oxadiazol-2-yl)methyl)-1H-pyrazolo[4,3-b]pyridin-7-amine] | 18 | 40 | 1.6 | – | – | – |
| CCOc1ncccc1-c1cc(NCc2ccccc2F)c2c(n1)c(C)nn2C(C)C [Example 89, 5-(2-ethoxy-3-pyridyl)-N-[(2-fluorophenyl)methyl]-1-isopropyl-3-methyl-pyrazolo[4,3-b]pyridin-7-amine] | 61 | 93 | 1.5 | – | – | – |
| Cc1nn(C)cc1-c1cc(NCc2cnn(C)c2)c2c(n1)c(C)nn2C(C)C [Example 61, 5-(1,3-dimethylpyrazol-4-yl)-1-isopropyl-3-methyl-N-[(1-methylpyrazol-4-yl)methyl]pyrazolo[4,3-b]pyridin-7-amine] | 550 | 680 | 120 | – | – | – |
| CCOc1ncccc1-c1cc(NCc2cnn(C)c2)c2c(n1)c(C)nn2C1COC1 [Example 27, 5-(2-ethoxy-3-pyridyl)-3-methyl-N-[(1-methylpyrazol-4-yl)methyl]-1-(oxetan-3-yl)pyrazolo[4,3-b]pyridin-7-amine] | 94 | 170 | 6.6 | – | – | – |
